{"source": "patent US6599940B2", "about": "“Synthesis of 2-hydroxymethylglutamic acid and congeners thereof” (Georgetown University, priority 2000, dated 2003)", "conditions_in_all_cases": "result in words, no method or number given", "key": {"mGluR2": {"target": "mGluR2 (Homo sapiens, UniProt Q14416)", "sequence (Q14416 19-872)": "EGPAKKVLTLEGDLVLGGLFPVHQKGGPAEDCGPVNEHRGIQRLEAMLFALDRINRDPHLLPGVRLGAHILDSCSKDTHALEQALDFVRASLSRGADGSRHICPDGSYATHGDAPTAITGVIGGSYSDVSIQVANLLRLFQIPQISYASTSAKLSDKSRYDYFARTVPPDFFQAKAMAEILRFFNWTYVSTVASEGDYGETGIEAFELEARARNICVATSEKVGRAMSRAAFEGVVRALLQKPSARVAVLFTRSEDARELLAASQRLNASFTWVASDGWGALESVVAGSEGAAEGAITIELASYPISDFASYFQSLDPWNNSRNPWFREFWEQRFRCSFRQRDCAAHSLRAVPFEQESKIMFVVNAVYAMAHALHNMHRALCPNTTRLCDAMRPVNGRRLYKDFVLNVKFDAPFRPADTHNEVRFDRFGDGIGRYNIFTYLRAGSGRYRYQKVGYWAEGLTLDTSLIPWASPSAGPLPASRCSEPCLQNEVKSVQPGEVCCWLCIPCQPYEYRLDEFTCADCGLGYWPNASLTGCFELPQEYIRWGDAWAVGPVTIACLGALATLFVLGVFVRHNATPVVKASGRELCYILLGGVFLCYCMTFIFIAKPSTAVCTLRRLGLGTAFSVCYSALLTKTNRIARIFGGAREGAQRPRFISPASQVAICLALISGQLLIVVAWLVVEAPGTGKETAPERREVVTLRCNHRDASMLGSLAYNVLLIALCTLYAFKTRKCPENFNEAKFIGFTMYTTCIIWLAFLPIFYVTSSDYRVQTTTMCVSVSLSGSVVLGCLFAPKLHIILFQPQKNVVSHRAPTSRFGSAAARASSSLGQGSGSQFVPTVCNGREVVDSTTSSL", "assay": "Antagonist activity at mGluR2"}, "Group 3 mGluRs": {"system": "Group 3 mGluRs", "assay": "Effect on Group 3 mGluRs"}, "mGluR3": {"target": "mGluR3 (Homo sapiens, UniProt Q14832)", "sequence (Q14832 23-879)": "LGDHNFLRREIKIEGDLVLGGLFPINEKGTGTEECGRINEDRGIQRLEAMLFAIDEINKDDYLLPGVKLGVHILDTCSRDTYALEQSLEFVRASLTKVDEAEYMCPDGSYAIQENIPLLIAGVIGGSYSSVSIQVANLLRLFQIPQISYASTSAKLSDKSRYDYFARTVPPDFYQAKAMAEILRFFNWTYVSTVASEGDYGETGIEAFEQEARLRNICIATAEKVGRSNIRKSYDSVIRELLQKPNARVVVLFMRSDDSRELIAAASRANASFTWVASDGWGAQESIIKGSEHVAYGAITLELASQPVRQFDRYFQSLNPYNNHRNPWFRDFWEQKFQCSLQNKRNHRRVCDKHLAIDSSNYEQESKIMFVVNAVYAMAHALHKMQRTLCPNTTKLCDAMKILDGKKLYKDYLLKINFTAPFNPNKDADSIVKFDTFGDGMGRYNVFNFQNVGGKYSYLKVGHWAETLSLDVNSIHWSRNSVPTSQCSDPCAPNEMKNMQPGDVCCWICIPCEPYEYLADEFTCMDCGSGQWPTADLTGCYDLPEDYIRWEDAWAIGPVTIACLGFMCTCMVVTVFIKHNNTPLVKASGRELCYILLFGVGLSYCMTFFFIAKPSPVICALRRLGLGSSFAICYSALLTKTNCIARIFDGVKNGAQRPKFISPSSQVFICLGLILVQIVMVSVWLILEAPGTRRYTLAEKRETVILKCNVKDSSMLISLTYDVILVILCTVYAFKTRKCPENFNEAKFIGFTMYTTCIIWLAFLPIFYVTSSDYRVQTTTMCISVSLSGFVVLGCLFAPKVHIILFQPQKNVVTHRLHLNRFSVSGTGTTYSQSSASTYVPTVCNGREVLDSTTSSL", "assay": "Agonist activity at the Group 2 receptor mGluR3"}, "Group 1 mGluRs": {"system": "Group 1 mGluRs", "assay": "Effect on Group 1 mGluRs"}}}
{"smiles": "N[C@@](CO)(CCC(=O)O)C(=O)O", "note": "[Compound 1, (R)-2(Hydroxymethyl)glutamic acid]", "values": [{"measurement": "activity at mGluR2", "setting": "mGluR2", "value": "weak antagonist"}, {"measurement": "effect on the Group 3 mGluRs", "setting": "Group 3 mGluRs", "value": "little or no effect"}, {"measurement": "activity at the Group 2 receptor mGluR3", "setting": "mGluR3", "value": "relatively potent agonist"}, {"measurement": "effect on the Group 1 mGluRs", "setting": "Group 1 mGluRs", "value": "little or no effect"}]}
